Test [1] concerns the target Recombinant human Cbl-b (aa 36-427) (Homo sapiens (Human), UniProt Q13191). Briefly: Cbl-b Biochemical Assay (TR-FRET). The note with it: read-out: TR-FRET hCbl-b IC50. The gist of the method:
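Two-step TR-FRET: 6 nM biotinylated Cbl-b preincubated 30-60 min with compound, then 60 min at RT with 1-2.5 nM Src-Zap70 and 0.5 mM ATP in HEPES pH 7.0 buffer, 1% DMSO. Stopped with 5 mM EDTA plus 100 nM UBE2D2-Ub-FL-BODIPY and 1 nM streptavidin-Tb, 60 min; 520 nm signal; IC50 from 4-parameter fit.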
In general terms: In TR-FRET formats the signal depends on donor and acceptor labels being close together.

In test [2] the test system is Jurkat (clone E6-1) cells, NFAT luciferase reporter. Briefly: Jurkat Reporter Assay (NFAT Luciferase). Format: cell-based. The note with it: Homo sapiens, anti-CD3 stimulation, 6 hr, read-out: Jurkat NFAT EC50. Background: A reporter such as luciferase makes a cellular process visible.
Test [3] concerns Phospho-Zap70 (Y-319) in Jurkat wild-type (clone E6-1) cells. Briefly: Jurkat pZAP70 HTRF Assay. Format: cell-based. The note with it: Homo sapiens, anti-CD3 5 μg/ml, 3 hr, read-out: ZAP70 Jurkat EC50.

Drawing on patent US12325697B2 (Nimbus Clio, Inc., priority 2021, dated 2025), this text covers IC50 and EC50 for 20 compounds.

Chain of Recombinant human Cbl-b (aa 36-427) (Q13191 36-427): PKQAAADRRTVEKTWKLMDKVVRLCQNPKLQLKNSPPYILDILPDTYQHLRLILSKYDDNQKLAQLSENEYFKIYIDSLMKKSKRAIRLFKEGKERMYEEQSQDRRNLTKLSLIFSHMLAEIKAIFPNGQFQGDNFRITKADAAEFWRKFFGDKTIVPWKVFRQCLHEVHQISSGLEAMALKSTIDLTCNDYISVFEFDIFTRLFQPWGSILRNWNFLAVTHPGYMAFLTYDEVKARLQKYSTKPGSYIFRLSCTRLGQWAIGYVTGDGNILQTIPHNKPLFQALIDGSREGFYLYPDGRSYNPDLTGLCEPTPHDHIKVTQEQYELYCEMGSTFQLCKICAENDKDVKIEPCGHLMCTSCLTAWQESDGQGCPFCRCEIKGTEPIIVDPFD

Consider `Cn1cnnc1-c1cc(C#N)ccc1-c1cc(C2CC2)nc(N2Cc3c(cc(CNCCOC(F)(F)F)cc3C(F)(F)F)C2=O)c1` [AGN-3, 4-{2-Cyclopropyl-6-[1-oxo-6-({[2-(trifluoromethoxy)ethyl]amino}methyl)-4-(trifluoromethyl)-3H-isoindol-2-yl]pyridin-4-yl}-3-(4-methyl-1,2,4-triazol-3-yl)benzonitrile], for which the IC50 in test [1] is no more than 200 nM. In addition, the EC50 in test [2] was less than 200 nM; in test [3], 200 to 1000 nM.

Consider `Cn1cnnc1-c1cnn(C)c1-c1cc(C2CC2)nc(N2Cc3c(cc(COCC4(O)CCC4)cc3C(F)(F)F)C2=O)c1` [AFV-3, 2-{6-Cyclopropyl-4-[2-methyl-4-(4-methyl-1,2,4-triazol-3-yl)pyrazol-3-yl]pyridin-2-yl}-6-{[(1-hydroxycyclobutyl)methoxy]methyl}-4-(trifluoromethyl)-3H-isoindol-1-one], for which the IC50 in test [1] was no more than 200 nM. Moreover, the concentration giving a half-maximal response (EC50) was less than 200 nM in test [2] and 200 to 1000 nM in test [3].

For the compound `CCNc1cc(-c2ccc(F)cc2-c2nncn2C)cc(N2Cc3c(cc(CO[C@@H]4CCC[C@@H]4O)cc3C(F)(F)F)C2=O)n1` [AFZ-1, 2-[6-(Ethylamino)-4-[4-fluoro-2-(4-methyl-1,2,4-triazol-3-yl)phenyl]pyridin-2-yl]-6-({[(1R,2S)-2-hydroxycyclopentyl]oxy}methyl)-4-(trifluoromethyl)-3H-isoindol-1-one], the half-maximal inhibitory concentration (IC50) in test [1] is no more than 200 nM. In addition, the concentration giving a half-maximal response (EC50) in test [2] is less than 200 nM; in test [3] it was 200 to 1000 nM.

For the compound `CCNc1cc(-c2c(-c3nncn3C)cnn2C)cc(N2Cc3c(cc(CN(C)CC4(O)CCC4)cc3C(F)(F)F)C2=O)n1` [AEJ-3, 2-(6-(Ethylamino)-4-(1-methyl-4-(4-methyl-4H-1,2,4-triazol-3-yl)-1H-pyrazol-5-yl)pyridin-2-yl)-6-((((1-hydroxycyclobutyl)methyl)(methyl)amino)methyl)-4-(trifluoromethyl)isoindolin-1-one], the IC50 in test [1] was no more than 200 nM. For the same compound, the 50% effective concentration (EC50) in test [2] and in test [3] was less than 200 nM in each case.

Turning to `CCNc1cc(-c2ccc(C#N)cc2-c2nncn2C)cc(N2Cc3c(cc(CNCCOC4CC4)cc3C(F)(F)F)C2=O)n1` [AGD-2, 4-[2-(6-{[(2-Cyclopropoxyethyl)amino]methyl}-1-oxo-4-(trifluoromethyl)-3H-isoindol-2-yl)-6-(ethylamino)pyridin-4-yl]-3-(4-methyl-1,2,4-triazol-3-yl)benzonitrile], the IC50 in test [1] was no more than 200 nM. Also, the concentration for a half-maximal effect (EC50) in test [2] and in test [3] was less than 200 nM each time.

Turning to `CCNc1cc(-c2ccc(F)cc2-c2nncn2C)cc(N2Cc3c(cc(COCC(C)(C)O)cc3C(F)(F)F)C2=O)n1` [AFG-1, 2-[6-(Ethylamino)-4-[4-fluoro-2-(4-methyl-1,2,4-triazol-3-yl)phenyl]pyridin-2-yl]-6-[(2-hydroxy-2-methylpropoxy)methyl]-4-(trifluoromethyl)-3H-isoindol-1-one], the IC50 in test [1] is no more than 200 nM. The EC50 was less than 200 nM in test [2] and 200 to 1000 nM in test [3].

Take `CCNc1cc(-c2ccc(F)cc2-c2nncn2C)cc(N2Cc3c(cc(COCCO)cc3C(F)(F)F)C2=O)n1` [AGE-3, 2-[6-(Ethylamino)-4-[4-fluoro-2-(4-methyl-1,2,4-triazol-3-yl)phenyl]pyridin-2-yl]-6-[(2-hydroxyethoxy)methyl]-4-(trifluoromethyl)-3H-isoindol-1-one]: the 50% inhibitory concentration (IC50) in test [1] is no more than 200 nM. For the same compound, the EC50 in test [2] and in test [3] was less than 200 nM in each case.

Regarding `Cn1cnnc1-c1cc(C#N)ccc1-c1cc(C2CC2)nc(N2Cc3ccc(CN[C@@H]4CCC[C@@H]4O)cc3C2=O)c1` [AHC-1, 4-{2-cyclopropyl-6-[6-({[(1R,2S)-2-hydroxycyclopentyl]amino}methyl)-1-oxo-3H-isoindol-2-yl]pyridin-4-yl}-3-(4-methyl-1,2,4-triazol-3-yl)benzonitrile], the IC50 in test [1] was no more than 200 nM. In addition, the half-maximal effective concentration (EC50) in test [2] and in test [3] was less than 200 nM each time.

Take `Cn1cnnc1-c1cnn(C)c1-c1cccc(N2Cc3c(cc(CN[C@@H]4CCC[C@@H]4O)cc3C(F)(F)F)C2=O)c1` [ADO-2, 6-({[(1R,2S)-2-Hydroxycyclopentyl]amino}methyl)-2-{3-[2-methyl-4-(4-methyl-1,2,4-triazol-3-yl)pyrazol-3-yl]phenyl}-4-(trifluoromethyl)-3H-isoindol-1-one]: in test [1], the IC50 was no more than 200 nM. In addition, the EC50 in test [2] and in test [3] was less than 200 nM each time.

Regarding `CCNc1cc(-c2ccc(C#N)cc2-c2nncn2C)cc(N2Cc3c(cc(COC4CC4)cc3C(F)(F)F)C2=O)n1` [AEV-3, 4-{2-[6-(Cyclopropoxymethyl)-1-oxo-4-(trifluoromethyl) -3H-isoindol-2-yl]-6-(ethylamino)pyridin-4-yl}-3-(4-methyl-1,2,4-triazol-3-yl) benzonitrile], the 50% inhibitory concentration (IC50) in test [1] is no more than 200 nM. Further, the figures for the half-maximal effective concentration (EC50) in test [2] and in test [3] were less than 200 nM and 1000 to 10000 nM, respectively.

With `Cn1cnnc1-c1cc(F)ccc1-c1cc(C2CC2)nc(N2Cc3ccc(CNCC4CCCC4)cc3C2=O)c1` [AHH-3, 6-{[(Cyclopentylmethyl)amino]methyl}-2-{6-cyclopropyl-4-[4-fluoro-2-(4-methyl-1,2,4-triazol-3-yl)phenyl]pyridin-2-yl}-3H-isoindol-1-one], the half-maximal inhibitory concentration (IC50) in test [1] is no more than 200 nM. The 50% effective concentration (EC50) in test [2] and in test [3] was less than 200 nM throughout.

Take `CCNc1cc(-c2ccc(C#N)cc2-c2nncn2C)cc(N2Cc3c(cc(COCC4(O)CCC4)cc3C(F)(F)F)C2=O)n1` [AEZ-1, 4-[2-(ethylamino)-6-(6-{[(1-hydroxycyclobutyl)methoxy]methyl}-1-oxo-4-(trifluoromethyl)-3H-isoindol-2-yl)pyridin-4-yl]-3-(4-methyl-1,2,4-triazol-3-yl) benzonitrile]: the IC50 in test [1] was no more than 200 nM. For the same compound, the values for the EC50 in test [2] and in test [3] were less than 200 nM and 200 to 1000 nM, respectively.

With `CCNc1cc(-c2ccc(F)cc2-c2nncn2C)cc(N2Cc3c(cc(CO)cc3C(F)(F)F)C2=O)n1` [AEF-1, 2-(6-(Ethylamino)-4-(4-fluoro-2-(4-methyl-4H-1,2,4-triazol-3-yl)phenyl)pyridin-2-yl)-6-(hydroxymethyl)-4-(trifluoromethyl)isoindolin-1-one], in test [1], the IC50 was no more than 200 nM. Further, the EC50 in test [2] and in test [3] was less than 200 nM each time.

`Cn1cnnc1-c1cc(F)ccc1-c1cc(C2CC2)nc(N2Cc3c(cc(CO)cc3C(F)(F)F)C2=O)c1` [AFK-1, 2-{6-Cyclopropyl-4-[4-fluoro-2-(4-methyl-1,2,4-triazol-3-yl)phenyl]pyridin-2-yl}-6-(hydroxymethyl)-4-(trifluoromethyl)-3H-isoindol-1-one]: the half-maximal inhibitory concentration (IC50) in test [1] was no more than 200 nM. The EC50 in test [2] and in test [3] was less than 200 nM in each case.

In the case of `CCOc1cc(-c2ccc(F)cc2-c2nncn2C)cc(N2Cc3ccc(CNCC4(O)CCC4)cc3C2=O)n1` [AGR-1, 2-{6-Ethoxy-4-[4-fluoro-2-(4-methyl-1,2,4-triazol-3-yl)phenyl]pyridin-2-yl}-6-({[(1-hydroxycyclobutyl)methyl]amino}methyl)-3H-isoindol-1-one], in test [1], the IC50 is no more than 200 nM. The concentration giving a half-maximal response (EC50) in test [2] and in test [3] was less than 200 nM in each case.

In the case of `Cn1cnnc1-c1cc(F)ccc1-c1cc(C2CC2)nc(N2Cc3c(cccc3C(F)(F)F)C2=O)c1` [AND-2, 2-{6-Cyclopropyl-4-[4-fluoro-2-(4-methyl-1,2,4-triazol-3-yl)phenyl]pyridin-2-yl}-4-(trifluoromethyl)-3H-isoindol-1-one], the IC50 in test [1] was no more than 200 nM. Further, the EC50 in test [2] is 200 to 1000 nM; in test [3], 1000 to 10000 nM.

As to `CCNc1cc(-c2ccc(C#N)cc2-c2nncn2C)cc(N2Cc3c(cc(CO)cc3C(F)(F)F)C2=O)n1` [ADX-2, 4-[2-(Ethylamino)-6-[6-(hydroxymethyl)-1-oxo-4-(trifluoromethyl)-3H-isoindol-2-yl]pyridin-4-yl]-3-(4-methyl-1,2,4-triazol-3-yl) benzonitrile], the 50% inhibitory concentration (IC50) in test [1] was no more than 200 nM. For the same compound, the 50% effective concentration (EC50) in test [2] is less than 200 nM; in test [3] it was 200 to 1000 nM.

As for `CCNc1cc(-c2ccc(C#N)cc2-c2nncn2C)cc(N2Cc3c(cc(COCC4(N)CCC4)cc3C(F)(F)F)C2=O)n1` [AGJ-2, 4-[2-(6-{[(1-aminocyclobutyl)methoxy]methyl}-1-oxo-4-(trifluoromethyl)-3H-isoindol-2-yl)-6-(ethylamino)pyridin-4-yl]-3-(4-methyl-1,2,4-triazol-3-yl)benzonitrile], the half-maximal inhibitory concentration (IC50) in test [1] was no more than 200 nM. The EC50 in test [2] is less than 200 nM; in test [3] it was 1000 to 10000 nM.

For the compound `CCNc1cc(-c2c(-c3nncn3C)cnn2C)cc(N2Cc3c(cc(CN[C@@H]4CCC[C@@H]4O)cc3C(F)(F)F)C2=O)n1` [ADF-2, 2-[6-(Ethylamino)-4-[2-methyl-4-(4-methyl-1,2,4-triazol-3-yl)pyrazol-3-yl]pyridin-2-yl]-6-({[(1R,2S)-2-hydroxycyclopentyl]amino}methyl)-4-(trifluoromethyl)-3H-isoindol-1-one], in test [1], the half-inhibitory concentration (IC50) was no more than 200 nM. The EC50 in test [2] and in test [3] was less than 200 nM throughout.

As for `COCCNCc1cc2c(c(C(F)(F)F)c1)CN(c1cccc(-c3ccc(C#N)cc3-c3nncn3C)c1)C2=O` [AEB-2, 3′-(6-(((2-Methoxyethyl)amino)methyl)-1-oxo-4-(trifluoromethyl)isoindolin-2-yl)-2-(4-methyl-4H-1,2,4-triazol-3-yl)-[1,1′-biphenyl]-4-carbonitrile], the 50% inhibitory concentration (IC50) in test [1] was no more than 200 nM. Besides, the half-maximal effective concentration (EC50) in test [2] and in test [3] was less than 200 nM throughout.

A word on the IC50: it is the concentration that inhibits the measured activity by half. The EC50 is the concentration that produces a half-maximal response.
